# Experiment: Measurement of log P values by HPLC on reversed phase columns (methods [a] pH 2.3, [b] pH 2.7, [c] pH 7.8)
# Format: physicochemical
# Conditions: HPLC on reversed phase column, method [b], pH 2.7
# How it was run: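 Determined per EEC Directive 79/831 Annex V.A8 by reversed-phase HPLC, 10-95% acetonitrile gradient: [a] pH 2.3, 0.1% phosphoric acid; [b] LC-MS, pH 2.7, 0.1% formic acid; [c] LC-MS, pH 7.8, 0.001 molar ammonium hydrogen carbonate. Calibrated with C3-C16 alkan-2-ones by retention-time interpolation.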
row,logP,SMILES
1,4.28^[b],O=C(NC1CCC1c1ccc(Cl)cc1C(F)(F)F)c1sccc1I (stereo not drawn) [Example 711]
2,3.52^[b],O=C(N[C@@H]1CC[C@@H]1c1ccc(Cl)cc1C(F)(F)F)c1c(F)cccc1F (relative stereo) [Example 702]
3,3.90^[b],O=C(N[C@@H]1CC[C@@H]1c1ccc(Cl)cc1C(F)(F)F)c1ccccc1I (relative stereo) [Example 678]
4,3.36^[b],O=C(N[C@@H]1CC[C@@H]1c1ccc(Cl)cc1C(F)(F)F)c1ccccc1[N+](=O)[O-] (relative stereo) [Example 713]
5,3.88^[b],O=C(N[C@@H]1CC[C@H]1c1cccc(F)c1C(F)(F)F)c1ccc(Cl)cc1 (relative stereo) [Example 600]
6,3.49^[b],O=C(N[C@@H]1CC[C@@H]1c1ccc(Cl)cc1C(F)(F)F)c1ncccc1Cl (relative stereo) [Example 699]
7,4.55^[b],O=C(NC1CCC1c1ccc(Cl)cc1C(F)(F)F)c1sccc1I (stereo not drawn) [Example 710]
8,4.43^[b],O=C(N[C@@H]1CC[C@H]1c1ccc(Cl)cc1C(F)(F)F)c1ccc(Cl)cc1 (relative stereo) [Example 706]
9,4.26^[b],O=C(N[C@@H]1CC[C@H]1c1ccc(Br)cc1C(F)(F)F)c1ccccc1C(F)(F)F (relative stereo) [Example 655]
10,4.20^[b],O=C(N[C@@H]1CC[C@H]1c1ccc(Cl)cc1C(F)(F)F)c1ccccc1I (relative stereo) [Example 677]

# Same assay, conditions: HPLC on reversed phase column, method [c], pH 7.8
row,logP,SMILES
1,4.19^[c];,O=C(N[C@@H]1CC[C@H]1c1ccc(Br)cc1C(F)(F)F)c1ccccc1C(F)(F)F (relative stereo) [Example 655]

# Same assay, conditions: HPLC on reversed phase columns, method [b], pH 2.7
row,logP,SMILES
1,2.59^[b],O=C(N[C@@H]1CCC[C@@H]1c1ccc(F)c(F)c1)c1ccncc1F (relative stereo) [Example 69]
2,1.75^[b],Cc1ncccc1C(=O)N[C@@H]1CCC[C@H]1c1ccc(F)c(F)c1 (relative stereo) [Example 63]
3,1.70^[b],Cc1nn(C)cc1C(=O)NC1CC1c1ccccc1 (stereo not drawn) [Example 6]
4,3.02^[b],O=C(N[C@@H]1CCC[C@@H]1c1ccc(F)c(F)c1)c1c(Cl)ccnc1Cl (relative stereo) [Example 120]
5,2.79^[b],O=C(N[C@@H]1C[C@H]1c1ccccc1)c1ccccc1Br (relative stereo) [Example 45]
6,3.06^[b],Cc1occc1C(=O)N[C@@H]1CCC[C@@H]1c1ccc(F)c(F)c1 (relative stereo) [Example 59]
7,2.73^[b],Cc1oncc1C(=O)N[C@@H]1CCC[C@@H]1c1ccc(F)c(F)c1 (relative stereo) [Example 112]
8,3.72^[b],O=C(N[C@@H]1CCC[C@@H]1c1ccc(F)c(F)c1)c1sccc1Cl (relative stereo) [Example 80]
9,2.88^[b],Cn1cc(C(=O)N[C@@H]2CCC[C@H]2c2ccc(F)c(F)c2)c(C(F)F)n1 (relative stereo) [Example 125]
10,2.64^[b],Cc1ncc(C(=O)N[C@@H]2CCC[C@H]2c2ccc(F)c(F)c2)s1 (relative stereo) [Example 108]

row,SMILES,logP
1,O=C(N[C@@H]1CCC[C@@H]1c1ccc(F)c(F)c1)c1ccsc1I (relative stereo) [Compound 56],3.29^[b]

# Same assay, conditions: HPLC reversed phase, method [b] (pH 2.7)
row,logP,SMILES
1,2.51^[b],Cc1nn(C)cc1C(=O)NC1CCCCC1c1c(F)cccc1F (stereo not drawn) [Example 393]
2,3.97^[b],O=C(NC1CCCCC1c1ccccc1Br)c1ccccc1Cl (stereo not drawn) [Example 405]
3,3.65^[b],O=C(NC1CCCCC1c1ccc(Cl)cc1)c1ccccc1Cl (stereo not drawn) [Example 371]
4,4.47^[b],O=C(NC1CCCCC1c1ccc(Cl)cc1Cl)c1ccccc1Cl (stereo not drawn) [Example 409]
5,2.16^[b],O=C(N[C@@H]1CC[C@@H]1c1c(F)cccc1C(F)(F)F)c1cccnc1 (relative stereo) [Example 562]
6,3.49^[b],Cc1nc(C)c(C(=O)NC2CCCCC2c2ccccc2C(F)(F)F)s1 (stereo not drawn) [Example 392]
7,3.85^[b],O=C(NC1CCC1c1ccc(Cl)cc1Cl)c1ccc(Cl)cc1 (stereo not drawn) [Example 453]
8,3.31^[b],O=C(NC1CCCCC1c1ccc(Cl)cc1)c1cccnc1C(F)(F)F (stereo not drawn) [Example 368]
9,3.87^[b],O=C(NC1CCCC1c1ccc(Cl)cc1Cl)c1ccccc1Cl (stereo not drawn) [Example 351]
10,4.21^[b],O=C(NC1CCCCC1c1ccccc1C(F)(F)F)c1ccccc1C(F)(F)F (stereo not drawn) [Example 374]
11,3.34^[b],Cc1nc(C(F)(F)F)c(C(=O)N[C@@H]2CC[C@H]2c2ccccc2Cl)s1 (relative stereo) [Example 554]
12,2.40^[b],O=C(N[C@@H]1CC[C@@H]1c1ccccc1Cl)c1cccnc1Cl (relative stereo) [Example 534]
13,4.43^[b],CC(C)Oc1ccc([C@H]2CCC[C@H]2NC(=O)c2ccc(I)s2)cc1 (relative stereo) [Example 338]
14,2.95^[b],Cn1cc(C(=O)NC2CCC2c2ccc(Cl)cc2Cl)c(C(F)F)n1 (stereo not drawn) [Example 469]
15,4.57^[b],O=C(NC1CCCCC1c1ccc(Cl)cc1Cl)c1ccccc1I (stereo not drawn) [Example 415]
16,3.55^[b],CC(C)Oc1ccc([C@H]2CCC[C@H]2NC(=O)c2c(F)cccc2F)cc1 (relative stereo) [Example 329]
17,3.50^[b],O=C(NC1CCCCC1c1ccc(Cl)cc1)c1c(F)cccc1F (stereo not drawn) [Example 369]
18,2.61^[b],O=C(N[C@@H]1CCC[C@@H]1c1ccccc1F)c1nccnc1Cl (relative stereo) [Example 336]
19,2.06^[b],O=C(N[C@@H]1C[C@@H]1c1ccc(Cl)cc1Cl)c1cccnc1 (relative stereo) [Example 583]
20,3.35^[b],O=C(N[C@@H]1CC[C@H]1c1cccc(F)c1C(F)(F)F)c1ccccc1 (relative stereo) [Example 591]
21,2.06^[b],O=C(N[C@@H]1CC[C@H]1c1ccccc1Cl)c1cccnc1 (relative stereo) [Example 539]
22,4.08^[b],O=C(N[C@@H]1CC[C@H]1c1ccc(F)cc1C(F)(F)F)c1ccc(Cl)cc1Cl (relative stereo) [Example 510]

# More lines, now with the values behind:
row,SMILES,logP
1,Cn1cc(C(=O)N[C@@H]2CCCC[C@H]2c2ccccc2C(F)(F)F)c(C(F)F)n1 (relative stereo) [Example 288],3.56^[b]
2,O=C(N[C@@H]1CC[C@@H]1c1ccc(Cl)cc1Cl)c1ncc(C(F)(F)F)cc1Cl (relative stereo) [Example 259],4.23^[b]
3,O=C(N[C@@H]1CCC[C@@H]1c1ccccc1F)c1ccccc1Cl (relative stereo) [Example 316],3.12^[b]
4,O=C(NC1CC1c1ccc(Cl)cc1)c1ccccc1Cl (stereo not drawn) [Example 275],2.77^[b]
5,CC(C)Oc1ccc([C@H]2CCC[C@H]2NC(=O)c2ccccc2C(F)(F)F)cc1 (relative stereo) [Example 325],3.90^[b]
6,O=C(NC1CCCC1c1ccccc1Cl)c1ccccc1I (stereo not drawn) [Example 295],3.51^[b]
7,O=C(NC1CCCC1c1ccccc1C(F)(F)F)c1ccccc1I (stereo not drawn) [Example 285],3.81^[b]
8,O=C(N[C@@H]1CC[C@H]1c1ccccc1Cl)c1c(F)cccc1F (relative stereo) [Example 243],3.11^[b]
9,O=C(NC1CCCC1c1c(F)cccc1F)c1cccnc1Cl (stereo not drawn) [Example 321],2.51^[b]
10,Cc1nn(C)cc1C(=O)NC1CCCC1c1c(F)cccc1F (stereo not drawn) [Example 324],2.13^[b]
11,O=C(NC1CCC1c1ccccc1C(F)(F)F)c1ncccc1Cl (stereo not drawn) [Example 458],3.22^[b]

# Same assay, conditions: HPLC reversed phase, method [c] pH 7.8
row,logP,SMILES
1,4.27^[c];,CC(C)Oc1ccc([C@H]2CCC[C@H]2NC(=O)c2ccc(I)s2)cc1 (relative stereo) [Example 338]
2,3.49^[c];,CC(C)Oc1ccc([C@H]2CCC[C@H]2NC(=O)c2c(F)cccc2F)cc1 (relative stereo) [Example 329]
3,2.55^[c];,O=C(N[C@@H]1CCC[C@@H]1c1ccccc1F)c1nccnc1Cl (relative stereo) [Example 336]

# The next lines start with the compound.
row,SMILES,logP
1,O=C(N[C@@H]1CCC[C@@H]1c1ccccc1F)c1ccccc1Cl (relative stereo) [Example 316],3.08^[c];
2,O=C(NC1CC1c1ccc(Cl)cc1)c1ccccc1Cl (stereo not drawn) [Example 275],2.71^[c];
3,CC(C)Oc1ccc([C@H]2CCC[C@H]2NC(=O)c2ccccc2C(F)(F)F)cc1 (relative stereo) [Example 325],3.84^[c];

# Same assay, conditions: HPLC-MS, method [b]: pH 2.7, 0.1% formic acid / acetonitrile; read-out: log P^b)
row,SMILES,chromatographic logP
1,"O=C(N[C@@H]1C[C@]1(F)c1ccc(Cl)cc1)c1c(F)cccc1F (relative stereo) [Compound 750, rel-N-[(1R,2S)-2-(4-chlorophenyl)-2-fluorocyclopropyl]-2,6-difluorobenzamide]",2.69

# Same assay, conditions: method [b], HPLC reversed phase, pH 2.7
row,logP,SMILES
1,2.94^[b],O=C(NC1CC1c1ccc(Cl)cc1)c1c(F)cccc1F (stereo not drawn) [Example 200]
2,2.64^[b],Cn1cc(C(=O)NC2CC2c2ccccc2C(F)(F)F)c(C(F)F)n1 (stereo not drawn) [Example 234]
3,5.85^[b],Cc1cc(C(=O)N(C2CC2)C2CCCCC2c2ccc(Cl)cc2Cl)c(C)o1 (stereo not drawn) [Example 163]
4,2.75^[b],Cn1nc(C(F)F)c(C(=O)NC2CC2c2cccc(F)c2)c1Cl (stereo not drawn) [Example 191]
5,3.04^[b],O=C(NC1CC1c1ccc(Cl)cc1)c1occc1Br (stereo not drawn) [Example 204]
6,2.59^[b],Cn1nc(C(F)F)c(C(=O)NC2CC2c2ccc(F)cc2)c1F (stereo not drawn) [Example 188]
7,3.94^[b],Cc1nn(C)c(F)c1C(=O)N(C1CC1)C1CCCCC1c1ccccc1Cl (stereo not drawn) [Example 154]
8,2.96^[b],N#Cc1ccccc1C(=O)NC1CCCC1c1ccc(F)c(F)c1 (stereo not drawn) [Example 137]
9,3.53^[b],Cc1nn(C)c(F)c1C(=O)N(C1CC1)C1CCCCC1c1ccccc1 (stereo not drawn) [Example 139]
10,4.18^[b],Cc1nc(C(F)F)c(C(=O)N(C2CC2)C2CCCCC2c2ccccc2)s1 (stereo not drawn) [Example 141]
11,4.03^[b],Cn1cc(C(=O)N(C2CC2)C2CCCCC2c2ccccc2Cl)c(C(F)F)n1 (stereo not drawn) [Example 158]

row,SMILES,logP
1,O=C(NC1CC1c1ccc(Cl)cc1)c1sccc1Cl (stereo not drawn) [Compound 203],3.51^[b]
2,O=C(NC1CC1c1ccc(Cl)cc1Cl)c1ccccc1C(F)(F)F (stereo not drawn) [Example 210],3.73^[b]

# Same assay, conditions: method [c], HPLC reversed phase, pH 7.8
row,SMILES,logP
1,O=C(NC1CC1c1ccc(Cl)cc1)c1c(F)cccc1F (stereo not drawn) [Example 200],2.89^[c];
2,O=C(NC1CC1c1ccc(Cl)cc1)c1sccc1Cl (stereo not drawn) [Compound 203],3.45^[c];
3,O=C(NC1CC1c1ccc(Cl)cc1Cl)c1ccccc1C(F)(F)F (stereo not drawn) [Example 210],3.62^[c];
4,O=C(NC1CC1c1ccc(Cl)cc1)c1occc1Br (stereo not drawn) [Example 204],2.98^[c];

# Same assay, conditions: reversed phase HPLC columns, pH 2.7, HPLC on reversed phase columns, method [b] (pH 2.7); read-out: logP
row,chromatographic logP,SMILES
1,2.95,O=C(N[C@@H]1CC[C@@H]1c1c(Cl)cccc1Cl)c1cccnc1C(F)(F)F [Example 746]
2,2.78,O=C(N[C@@H]1C[C@]1(F)c1ccc(Cl)cc1)c1ccccc1Cl [Example 752]

# From US20160075653A1, “NEMATICIDAL N-(PHENYLCYCLOALKYL)CARBOXAMIDES AND N-(PHENYLCYCLOALKYL)THIOCARBOXAMIDES” (BAYER CROPSCIENCE AKTIENGESELLSCHAFT, priority 2013, published 2016)
